From article PMC9964957, “A Liquid Chromatography Tandem Mass Spectrometry Method for the Simultaneous Estimation of the Dopamine Receptor Antagonist LE300 and Its N-methyl Metabolite in Plasma: Application to a Pharmacokinetic Study” (Molecules, 2023)
Like-named read-outs stand apart in the source and are kept apart here.

How the values were obtained:
[1] = Stability in stock preparations; type: physicochemical; conditions: stock preparations kept at −80 °C for 28 days
Experimental: LE300 and MLE300 stock solutions were prepared separately in a mixture of methanol and water (1:1) at a concentration of 1 mg/mL. Ponatinib (IS) stock solution was prepared in DMSO at 1 mg/mL. […] Successive working solutions of LE300 and MLE300 were additionally obtained through dilution using ultrapure water at concentrations of 0.05, 0.5, 5, and 20 µg/mL. A working solution of IS was prepared in ultrapure water at a concentration of 20 ng/mL. Two calibrators at concentrations ranged from 1 to 200 ng/mL and 2 to 200 ng/mL for LE300 and MLE300, respectively, were prepared in blank rat plasma from the intermediate solutions. Different quality control samples for LE300 at 1.0 ng/mL for the LLOQ, 3.0 ng/mL for the QC sample at low concentration, (LOQ), 75 ng/mL for the QC sample at mid concentration (MQC), and 175 ng/mL for the QC sample at high concentration (HQC) were prepared by spiking an appropriate volume of the intermediate solutions with blank rat plasma. Similarly, different quality control samples for MLE300 at 2.0, 6.0, 90, and 180 ng/mL for LLOQ, LOQ, MQC, and HQC were prepared. The peak area ratios of LE300 and MLE300 to IS were treated to obtain the calibration curve of each drug. Alternatively, the corresponding regression equation was derived.

[2] = rat plasma
in vivo = conditions: male, Wistar, rat, plasma, po, 10 mg/kg
[3] = high QC (nominal 175 ng/mL LE300, 180 ng/mL MLE300)
[4] = low QC (nominal 3 ng/mL LE300, 6 ng/mL MLE300)

| Stability in stock preparations [1] | CL/F (total clearance of the drug from plasma after oral administration) (rat, in vivo, po, 10 mg/kg) | Autosampler Stability (24 h at 15 °C) [2, 3] | Freeze-Thaw Stability (3 cycles, −80 °C) [2, 3] | Long-Term Stability (−80 °C for 28 d) [2, 3] | Short-Term Stability (4 h at Room T) [2, 3] | Autosampler Stability (24 h at 15 °C) [2, 4] | Freeze-Thaw Stability (3 cycles, −80 °C) [2, 4] | Long-Term Stability (−80 °C for 28 d) [2, 4] | Short-Term Stability (4 h at Room T) [2, 4] | AUC(0-inf) (in vivo) | AUC(0-t) (in vivo) | Tmax (in vivo) | half-life (in vivo) | Cmax (in vivo; Cmax (maximum plasma concentration), rat plasma, single oral dose 10 mg/kg LE300, mean ± SD, six rats) | CL/F (total clearance of the drug from plasma after oral administration) (rat plasma, single oral dose 10 mg/kg LE300, mean ± SD, six rats) | Cmax (in vivo) | Structure (SMILES) |
| --- | --- | --- | --- | --- | --- | --- | --- | --- | --- | --- | --- | --- | --- | --- | --- | --- | --- |
| perfect stability | 0.017 ± 0.01 L/h | 98.9 ± 1.3% | 99.2 ± 1.3% | 99.2 ± 1.7% | 98.3 ± 1.8% | 98.5 ± 1.8% | 97.9 ± 1.5% | 97.7 ± 1.4% | 98.5 ± 1.6% | 577 ± 22.4 ng·h/mL | 524 ± 24.3 ng·h/mL | 2 ± 0.18 h | 7.38 ± 0.17 h | 151 ± 12.5 ng/mL |  |  | CN1CCc2ccccc2Cc2[nH]c3ccccc3c2CC1 [LE300, 7-methyl-6,7,8,9,14,15-hexahydro-5Hbenz[d]indolo[2,3-g]azecine] |
| perfect stability |  | 98.5 ± 1.7% | 99.5 ± 1.5% | 99.2 ± 2.3% | 98.8 ± 1.8% | 99.3 ± 1.7% | 98.2 ± 1.4% | 98.9 ± 1.4% | 97.9 ± 1.6% | 790 ± 37.2 ng·h/mL | 762 ± 34.3 ng·h/mL | 3 ± 0.18 h | 4.56 ± 0.29 h |  | 0.012 ± 0.01 L/h | 170 ± 26.3 ng/mL | CN1CCc2ccccc2Cc2c(c3ccccc3n2C)CC1 [MLE300] |
